Assay results from patent publication US20120252119A1, “METHODS FOR THE COLLECTION AND MATURATION OF OOCYTES” (priority 2009, published 2012).
One block for each compound: values may come before it.

Tests used:
[1] = system: cAMP content of the whole COCs; assay: cAMP content of bovine COCs, radioimmunoassay; format: cell-based; conditions: agent alone, up to 2 hours, FIG. 2
Method: Oocytes were aspirated with their cumulus vestments intact (COCs). A subset of the COCs were denuded of their cumulus vestment prior to assay (DO). Aspiration and subsequent selection procedures (pre-IVM phase) were performed for 2 hours where oocytes (COCs and DOs) were processed in various media (termed “pre-IVM phase media” or “pre-IVM media”). These included processing of oocytes either in follicular fluid, or in two types of collection medium. […] Cyclic AMP content of COCs and denuded oocytes (DOs), i.e. those oocytes cultured as COCs but denuded of their cumulus vestment prior to assay, were measured using a radioimmunoassay method described and validated previously (Reddoch et al., 1986, Endocrinology 119: 879-886). […] Briefly, supernatants were collected, evaporated, resuspended in assay buffer (50 mM sodium acetate, pH 5.5) and acetylated by the addition of triethylamine (AJAX Chemicals, Sydney, Australia) and acetic anhydride (BDH Laboratory Supplies, Poole, England) 2:1 v/v. cAMP was measured in duplicates after appropriate dilution. ^125I-labelled cAMP (specific activity of 2175 Ci/mM) and cAMP antibody (as prepared by Reddoch et al supra) were added to samples and left overnight at 4° C. […] The supernatant was removed and the pellet dried and counted using a gamma counter. […]

bovine oocytes [2] = assay: Bovine in vitro fertilization and embryo culture (cleavage, blastocyst development); format: cell-based
Method: At 24 or 30 hours after IVM, COCs were washed twice using Bovine VitroWash (Cook Australia), and transferred to insemination dishes containing in vitro fertilisation (IVF) medium (Bovine VitroFert, Cook Australia) supplemented with penicillamine (0.2 mM; Sigma), hypotaurine (0.1 mM; Sigma), and heparin (2 mg/ml; Sigma). Frozen semen from a single bull of proven fertility was used for insemination. Briefly, thawed semen was layered over a discontinuous (45%: 90%) Percoll gradient (Amersham Bioscience) and centrifuged for 20-25 minutes at 700 g. The supernatant was removed and the sperm pellet was washed with 500 μl Bovine VitroWash and centrifuged for a further 5 minutes at 200 g. […] Embryos were assessed for quality at Day 8 according to the definitions presented in Stingfellow and Seidel, 1998, Manual of the International Embryo Transfer Society. […]
Therefore, cumulus-oocyte complexes (COCs) were aspirated and selected in either follicular fluid, collection medium or collection medium supplemented with 100 μM forskolin (FSK) and 500 μM IBMX for 2 hours. […] Oocyte developmental capacity was then assessed after in vitro fertilization and embryo development was assessed by the cleavage rate and blastocyst rate on day 8. […]

human oocytes = assay: Human oocyte IVM, meiosis score; format: cell-based; conditions: for % GV / % GVBD / % PB: IVM with 0.1 μM cilostamide and FSH
Method: Immature human cumulus-oocyte complexes (COC) were collected from young, healthy women (not from IVF patients). […] Oocyte pick-up was performed when the lead ovarian follicle reached 12 mm. Immature oocytes were then stratified to various treatments during either the Pre-IVM or IVM periods, as detailed below. In addition, time of removal of somatic cells from oocytes (denuding) during the oocyte maturation period was examined. The following trials were conducted: • Dose of PDE3-inhibitor (cilostamide) during IVM: 0 versus 0.1 versus 1.0 μM • cAMP modulators during Pre-IVM: control versus IBMX versus IBMX+forskolin • Effect of time of oocyte denuding on embryo development: 30 versus 40 versus 44-48 hours
At the oocyte pick-up, COC were collected immediately into pre-IVM treatments in VitroCollect medium (Cook Australia, Brisbane, Australia) and held for one hour. Following pre-IVM, COC were washed and then transferred to IVM treatments (e.g. dose of cilostamide) in VitroMat medium (Cook) and matured under standard conditions. At the various times post-denuding, oocytes were monitored for maturation (polar body [PB] extrusion). At the end of maturation (48 hours) a final meiosis score was given. As oocytes matured they were inseminated using standard intra-cytoplasmic sperm injection (ICSI) procedures using donor sperm. 24 hours later fertilisation rates were determined. Embryos were cultured for up to 6 days until developmental arrest using standard procedures.

[3] = system: FSH-induced oocyte maturation; assay: EGFR kinase inhibitor on FSH-induced oocyte maturation in presence of cilostamide; format: cell-based, bovine
Method: The basic oocyte maturation medium (also referred to as the “IVM medium” or “IVM phase medium”) used for the IVM phase was a bovine maturation medium (termed Bovine VitroMat, Cook Australia), a medium formulated to closely replicate the ionic composition of bovine follicular fluid. Where indicated, the type-3 PDE specific inhibitor cilostamide (20 μM; Biomol Plymouth Meeting, Pa.) or the epidermal growth factor receptor (EGFR) kinase inhibitor, AG1478 (Alexis Biochemicals, San Diego, Calif.), were added to the IVM medium from a millimolar stock solution stored at −20° C. dissolved in DMSO. […]
At the end of the incubation, COCs were denuded and oocytes were fixed for 30 min in 4% paraformaldehyde in PBS (pH 7.4). Oocytes were then permeabilized in 0.1% Triton X-100 in 0.1% sodium citrate for 1 hour, then transferred to 0.001% 4′,6-diamidino-2-phenylindole (DAPI), a fluorescence stain for nuclear material, for 15 min. Oocytes were rinsed 3 times in PBS+0.03% BSA, mounted on slides and evaluated for nuclear status at 400× using an Olympus fluorescence microscope. Stages of germinal vesicle (GV) and subsequent meiotic development were assessed based on known techniques (Chohan and Hunter, 2003, Anim. Reprod. Sci. 76: 43-51). […]
Oocytes were then fixed and assessed for meiotic progression at 24 hours. […]

bovine oocytes [4] = assay: Oocyte nuclear morphology assessment (GV configuration, GVBD, meiotic progression); format: cell-based
Method: At the end of the incubation, COCs were denuded and oocytes were fixed for 30 min in 4% paraformaldehyde in PBS (pH 7.4). Oocytes were then permeabilized in 0.1% Triton X-100 in 0.1% sodium citrate for 1 hour, then transferred to 0.001% 4′,6-diamidino-2-phenylindole (DAPI), a fluorescence stain for nuclear material, for 15 min. Oocytes were rinsed 3 times in PBS+0.03% BSA, mounted on slides and evaluated for nuclear status at 400× using an Olympus fluorescence microscope. Stages of germinal vesicle (GV) and subsequent meiotic development were assessed based on known techniques (Chohan and Hunter, 2003, Anim. Reprod. Sci. 76: 43-51). In brief, GV chromatin of bovine oocytes was classified into: GV I—condensed filamentous chromatin around the nucleolus and nuclear membrane; GV II—filamentous chromatin surrounding the nucleolus; GV III—filamentous chromatin clumps are distributed in the nucleus and the nucleolus has disappeared; GV IV—chromatin has condensed into a thick clump; Early diakenesis-chromatin beginning to condense into a single lump; Diakenesis-chromatin has condensed into a single lump; Metaphase I—tetrads are aligned on the spindle; and Metaphase II—the metaphase chromatin is evident as well as a small chromatin-containing polar body.
Oocytes were then fixed and assessed for meiotic progression and classified as GV (germinal vesical intact—still under meiotic arrest) or GVBD (germinal vesical breakdown—resumption of meiosis). A mean number of 45 oocytes were used in each treatment group and time-point from four replicate experiments. The presence of letters (a or b) above each column indicate a statistical difference between the means as determined by ANOVA analysis followed by Bonferronni's post hoc test, P<0.05.
Oocytes were exposed to pre-IVM phase media comprising pure follicular fluid, collection medium, or collection medium supplemented with cAMP modulators (forskolin and IBMX) (A), followed by extended culture in the presence (C; E) or absence (B; D) of the type-3 PDE inhibitor, cilostamide (20 μM), plus follicle stimulating hormone. Oocytes were then fixed and assessed for GV configuration at 2, 5 and 9 hours. A mean number of 40 oocytes were used in each treatment group and time-point from four replicate experiments.
As indicated above, oocytes were aspirated and selected in either follicular fluid, collection medium or collection medium supplemented with 100 μM forskolin (FSK) and 500 μM IBMX for 2 hours. […] Oocytes were then fixed and assessed for meiotic progression at 20, 24 and 28 hours. A mean number of 45 oocytes were used in each treatment group and time-point from four replicate experiments.

[5] = system: oocyte-cumulus cell gap junctional communication; assay: Oocyte-cumulus cell gap junctional communication assay (calcein transfer); format: cell-based, bovine; conditions: after 3 hours of IVM culture post pre-IVM phase, FIG. 7
Method: Cumulus-oocyte gap junctional communication (GJC) was measured by quantitative fluorescence microscopy of calcein transfer to the oocyte as described previously (Thomas et al., 2004, In “Biol. Reprod.”, pp 1142-1149). GJC was measured either after 2 hours of pre-IVM phase or followed by an additional 3 hours of IVM with or without cilostamide (20 μM). A mean number of 10-12 oocytes were used in each treatment group in each of four replicate experiments. After culture, COCs were transferred to a solution of 1 μM calcein-AM (3′,6′-di(O-acetyl)-2′,7′-bis[N,N-bis(carboxymethyl)amino methyl]-fluorescein, tetraacetoxy methyl ester; C-3100; Molecular Probes; Eugene, Oreg., USA) freshly prepared in a BSA-free Bovine VitroCollect (Cook Australia) supplemented with polyvinyl alcohol (PVA; 0.3 mg/ml). […] Prior to fluorescence microphotometry, COCs were completely denuded of their surrounding cumulus cells using vigorous pipetting so that only dye confined within the denuded oocyte after transport via gap junctions was measured. Within 30 minutes of denuding, the intra-oocyte fluorescence emission of calcein in oocytes was measured using a fluorophotometric-inverted microscope (Leica, Wetzlar, Germany). […]

Compound: CC(C)Cn1c(=O)n(C)c(=O)c2[nH]cnc21 [IBMX, 3-isobutyl 1-methylxanthine]
COC cAMP levels during pre-IVM [1]: maintained cAMP levels for 2 hours | development to the blastocyst stage (bovine oocytes [2]; 30-60 minutes pre-IVM, IVM with 20 μM cilostamide, FIG. 11B): significantly higher than control | % GV (human oocytes; 36-40 hours): 10.3% | % GVBD (human oocytes; 36-40 hours): 43.6% | % PB (human oocytes; 36-40 hours): 46.2% | % GV (human oocytes; 42-44 hours): 9.4% | % GVBD (human oocytes; 42-44 hours): 28.1% | % PB (human oocytes; 42-44 hours): 62.5% | % GV (human oocytes; 30 hours): 11.1% | % GVBD (human oocytes; 30 hours): 48.1% | % PB (human oocytes; 30 hours): 40.7% | % GV (human oocytes; 48 hours): 10.3% | % GVBD (human oocytes; 48 hours): 28.2% | % PB (human oocytes; 48 hours): 61.5%

maturation percentage ([3]; FSH 100 mlU, cilostamide 20 μM, increasing doses of AG1478, 24 hours, from >80% without, FIG. 10): approximately 5%
Compound: COc1cc2ncnc(Nc3cccc(Cl)c3)c2cc1OC [AG1478]
meiotic recovery of FSH and cilostamide treated COCs ([3]; increasing doses of AG1478): completely prevented the meiotic recovery

Compound: CN(C(=O)CCCOc1ccc2[nH]c(=O)ccc2c1)C1CCCCC1 [cilostamide]
rates of GVBD (bovine oocytes [4]; 2 h pre-IVM, 7 h IVM with FSH and cilostamide 20 μM, all pre-IVM treatments, FIG. 5): significantly lowered the rates of GVBD | oocytes at GV IV (bovine oocytes [4]; 9 hours, collection medium lacking cAMP modulators, 7 h IVM+cilostamide, FIG. 6E): 51%±10 | oocytes at M I stage (bovine oocytes [4]; 20 hours of IVM with cilostamide, absence of FSH, FIG. 8A): 36%±4 | oocytes at M I stage (bovine oocytes [4]; 20 hours of IVM+cilostamide, presence of FSH, FIG. 8B): 21%±4 | oocytes progressed to M II stage (bovine oocytes [4]; 24 hours of IVM with cilostamide, absence of FSH, FIG. 8A): 50% | oocytes arrested at the M I stage (bovine oocytes [4]; cilostamide, absence of FSH, 24 hours of culture, FIG. 8A): 40-50% | levels of gap junctional communication [5]: had no effect in maintaining the level of gap junctional communication | % Blastocysts (bovine oocytes [2]; collection phase CM without cAMP modulators, IVM +cilostamide, maturation time 24): 22% | effect of dose on resumption of meiosis (human oocytes; cilostamide 0.1 μM): non-inhibiting | Germinal Vesicle Breakdown (human oocytes; cilostamide 0.1 μM during IVM (n = 39)): 44% | effect of dose on resumption of meiosis (human oocytes; cilostamide 1.0 μM): inhibiting dose | Germinal Vesicle Breakdown (human oocytes; cilostamide 1.0 μM during IVM (n = 38)): 13%
